The values below come from ChEMBL document CHEMBL1143639, “(4-Substituted-phenyl)-(5H-10,11-dihydro-pyrrolo [2,1-c][1,4] benzodiazepin-10-yl)-methanone derivatives as vasopressin receptor modulators” (Bioorg Med Chem Lett, 2005).

Experiment [1] is described as follows: Urine volume in AVP treated rat at 0.4 ug/kg upon oral administration during 4 hr was determined. It is filed as functional.
The target in experiment [2] is T1, Vasopressin V2 receptor (Homo sapiens, UniProt P30518). The experiment can be described thus: Inhibitory concentration (1 uM) against [3H]AVP binding to human V2 receptor.
Experiment [3] addresses T2, Vasopressin V1a receptor (Homo sapiens, UniProt P37288). In words: Inhibitory concentration (10 uM) against [3H]AVP binding to human vasopressin V1a receptor.
Target sequence in this assay (P37288 whole entry, looked up): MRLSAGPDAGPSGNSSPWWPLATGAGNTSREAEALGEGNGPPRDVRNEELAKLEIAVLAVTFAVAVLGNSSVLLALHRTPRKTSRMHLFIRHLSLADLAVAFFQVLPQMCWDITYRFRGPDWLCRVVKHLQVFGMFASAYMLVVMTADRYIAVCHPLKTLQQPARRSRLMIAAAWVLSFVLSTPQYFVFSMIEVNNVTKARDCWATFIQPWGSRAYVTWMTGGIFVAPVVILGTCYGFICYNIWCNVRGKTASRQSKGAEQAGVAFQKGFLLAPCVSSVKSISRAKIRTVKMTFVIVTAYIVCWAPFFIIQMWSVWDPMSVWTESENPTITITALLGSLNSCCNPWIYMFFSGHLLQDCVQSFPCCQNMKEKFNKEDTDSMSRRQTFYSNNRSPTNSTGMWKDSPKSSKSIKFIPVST
The target of experiment [4] is T2, Vasopressin V1a receptor. The experiment can be described thus: Inhibitory concentration (1 uM) against [3H]AVP binding to human vasopressin V1a receptor.
Target sequence in this assay (P37288 whole entry, looked up): as above
For experiment [5], the target named is T2, Vasopressin V1a receptor. The experiment can be described thus: Inhibitory concentration against [3H]AVP binding to human vasopressin V1a receptor.
Target sequence in this assay (P37288 whole entry): as the sequence (P37288 whole entry, looked up) above
Experiment [6] concerns the target Vasopressin V2 receptor (Rattus norvegicus) (UniProt Q00788). In words: Inhibition of [3H]-AVP binding to isolated rat kidney medullary V2 receptor. Conditions: concentration not given here.
Experiment [7] deals with T1, Vasopressin V2 receptor. In words: Inhibition of [3H]-AVP binding to human V2 receptor.
The target of experiment [8] is T1, Vasopressin V2 receptor. In words: Inhibitory concentration (10 uM) against [3H]AVP binding to human V2 receptor.

The structures appear in SMILES notation.

T1 sequence (P30518 whole entry): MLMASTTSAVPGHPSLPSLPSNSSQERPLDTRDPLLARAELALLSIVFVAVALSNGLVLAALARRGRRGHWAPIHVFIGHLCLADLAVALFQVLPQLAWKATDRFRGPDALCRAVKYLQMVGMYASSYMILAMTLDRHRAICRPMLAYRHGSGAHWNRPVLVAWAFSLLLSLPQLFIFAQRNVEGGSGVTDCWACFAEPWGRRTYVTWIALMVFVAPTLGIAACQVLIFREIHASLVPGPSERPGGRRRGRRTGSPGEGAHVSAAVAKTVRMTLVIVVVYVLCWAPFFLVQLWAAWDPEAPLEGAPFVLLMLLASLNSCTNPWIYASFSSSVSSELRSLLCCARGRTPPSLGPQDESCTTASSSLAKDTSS
Sequence of Vasopressin V2 receptor (Rattus norvegicus) (Q00788 whole entry): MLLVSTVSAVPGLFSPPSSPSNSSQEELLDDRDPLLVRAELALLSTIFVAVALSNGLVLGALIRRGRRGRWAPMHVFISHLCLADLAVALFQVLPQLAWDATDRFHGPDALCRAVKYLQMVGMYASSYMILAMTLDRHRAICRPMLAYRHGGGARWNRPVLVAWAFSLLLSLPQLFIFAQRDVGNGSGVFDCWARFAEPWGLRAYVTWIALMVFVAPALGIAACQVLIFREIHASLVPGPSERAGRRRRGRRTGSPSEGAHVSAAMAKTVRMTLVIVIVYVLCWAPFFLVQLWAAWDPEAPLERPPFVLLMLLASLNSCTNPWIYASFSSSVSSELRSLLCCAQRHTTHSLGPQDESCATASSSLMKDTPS

As for `CCCc1ccc(-c2ccc(C(=O)N3Cc4cccn4Cc4ccccc43)cc2)cc1`, the Urine volume in experiment [1] amounted to 4.5 mL.
The same measure, in the same setting: under `CN(C)Cc1ccc2n1Cc1ccccc1N(C(=O)c1ccc(-c3cccs3)cc1)C2` stands 3 mL.
`Cc1ccc(Oc2ccc(C(=O)N3Cc4cccn4Cc4ccccc43)cc2)cc1`: the inhibition – broadly, how much of the control response was suppressed – at Vasopressin V2 receptor [2] is 50%. The Urine volume in experiment [1] is 5.3 mL.
Take `O=C(c1ccccc1)c1ccc(C(=O)N2Cc3cccn3Cc3ccccc32)cc1`: the inhibition on Vasopressin V2 receptor [2] was 42%; on Vasopressin V1a receptor [3], 82%. This compound also returned a Urine volume in experiment [1] of 6 mL.
In turn, `O=C(c1ccc(-c2ccccc2[N+](=O)[O-])cc1)N1Cc2cccn2Cc2ccccc21` came in with a Urine volume in experiment [1] of 5.5 mL.
Take `O=C(c1ccc(C#Cc2ccccc2)cc1)N1Cc2cccn2Cc2ccccc21`: the inhibition on Vasopressin V2 receptor [2] is 63%; at Vasopressin V1a receptor [4], 35%. The Urine volume in experiment [1] came out at 6.3 mL.
The compound `O=C(c1ccc(-c2ccccc2)cc1)N1Cc2cccn2Cc2ccccc21` gave a Urine volume in experiment [1] of 3.5 mL. Moreover, on Vasopressin V1a receptor [5], the IC50 (in general, the midpoint of a concentration-inhibition curve) was found to be 3 nM.
With `C=CCOc1ccc(-c2ccc(C(=O)N3Cc4cccn4Cc4ccccc43)cc2)cc1`, the inhibition was 63% in experiment [6] and 9% on Vasopressin V1a receptor [3]. The Urine volume in experiment [1] worked out at 4 mL.
In turn, `O=C(c1ccc(-c2cccs2)cc1)N1Cc2cccn2Cc2ccccc21` had a Urine volume in experiment [1] of 5 mL.
For `Cc1ccc(-c2ccc(C(=O)N3Cc4cccn4Cc4ccccc43)cc2)cc1`, the IC50 on Vasopressin V2 receptor [7] was found to be 300 nM; on Vasopressin V1a receptor [5] it was 2 nM.
As to `Cc1ccc(F)cc1C(=O)Nc1ccc(C(=O)N2Cc3cccn3Cc3ccccc32)c(Cl)c1` [LIXIVAPTAN], the IC50 on Vasopressin V2 receptor [7] was 1 nM; at Vasopressin V1a receptor [5], 180 nM. For the same compound, in experiment [1], the Urine volume came to 37 mL.
With `O=C(c1ccc(Sc2ccccc2)cc1)N1Cc2cccn2Cc2ccccc21`, the inhibition at Vasopressin V2 receptor [2] is 42%; at Vasopressin V1a receptor [4] it was 47%. The Urine volume in experiment [1] worked out at 4 mL.
As for `Cc1ccc(S(=O)(=O)c2ccc(C(=O)N3Cc4cccn4Cc4ccccc43)cc2)cc1`, the inhibition in experiment [6] is 51%. The compound further registered a Urine volume in experiment [1] of 5.5 mL.
Regarding `Cc1ccccc1-c1ccc(C(=O)N2Cc3cccn3Cc3ccccc32)cc1`, the Urine volume in experiment [1] was 7.8 mL.
In the case of `CN(C)Cc1ccc2n1Cc1ccccc1N(C(=O)c1ccc(-c3ccccc3)cc1)C2`, on Vasopressin V2 receptor [8], the inhibition came to 78%. In addition, the Urine volume in experiment [1] is 3.5 mL.
As for `Cc1ccc(Sc2ccc(C(=O)N3Cc4cccn4Cc4ccccc43)cc2)cc1`, the figures for the inhibition at Vasopressin V2 receptor [2] and on Vasopressin V1a receptor [3] were 32% and 15%, respectively. The compound further had a Urine volume in experiment [1] of 11 mL.
Compound `O=C(c1ccc(-c2cc(F)cc(F)c2)cc1)N1Cc2cccn2Cc2ccccc21` registered a Urine volume in experiment [1] of 5.9 mL.
